The source of these data is US6576620B2, “Method of identifying partial adenosine A1 receptor agonists” (CV Therapeutics, Inc., priority 1999, dated 2003).

The test system of one experiment is Adenosine A1 receptor. The experiment is described as follows: A1-agonist stimulated [35S]GTPγS binding to G proteins. It counts as biochemical. The conditions noted are these: Table 1, compounds of Example 2; normalized to the full agonist CPA. On the procedure: At the end of the incubation, each suspension was filtered and the retained radioactivity determined as described above.
As for `COC(=O)CNC(=O)OC[C@H]1O[C@@H](n2cnc3c(N[C@@H]4CCOC4)ncnc32)[C@H](O)[C@@H]1O` [Compound 43 of Example 2, Methyl 2-{[(5-{6-[((3R)oxolan-3-yl)amino]purin-9-yl}(3S, 2R,4R,5R)dihydroxyoxolane-2-yl)methoxy}carbonylamino}acetate], the GTPγS is 53%. `CCOC(=O)[C@H]1C2CCC(C2)[C@H]1NC(=O)OC[C@H]1O[C@@H](n2cnc3c(N[C@@H]4CCOC4)ncnc32)[C@H](O)[C@@H]1O` (stereo partly drawn) [Compound 36 of Example 2]: the GTPγS is reported as 41%. In the case of `O=C(N[C@@H]1CCC[C@H]1O)OC[C@H]1O[C@@H](n2cnc3c(N[C@@H]4CCOC4)ncnc32)[C@H](O)[C@@H]1O` [Compound 62 of Example 2, {(5-{6[((3R)oxolan-3-yl)amino]purin-9-yl}(3S,2R,4R,5R)-3,4-dihydroxyoxolan-2-yl)methoxy]-N-((1R,2R)-2-hydroxycyclopentyl)carboxamide], the GTPγS came to 42%.

For the compound `O[C@@H]1[C@H](O)[C@@H](COC(=S)NC2CC2)O[C@H]1n1cnc2c(N[C@@H]3CCOC3)ncnc21` [Compound 59 of Example 2, 2-{6-[((3R)oxolan-3-yl)amino]purin-9-yl}(4S,2R,3R,5R)-5-{[(cyclopropylamino)thioxomethoxy]methyl}oxolane-3,4-diol], the GTPγS was found to be 82%. With `COC(=S)NC[C@H]1O[C@@H](n2cnc3c(N[C@@H]4CCOC4)ncnc32)[C@H](O)[C@@H]1O` [Compound 71 of Example 2], the GTPγS is 98%. With `O=C(N[C@@H]1CCC[C@H]1OCc1ccccc1)OC[C@H]1O[C@@H](n2cnc3c(N[C@@H]4CCOC4)ncnc32)[C@H](O)[C@@H]1O` [Compound 37 of Example 2, {(5-{6 [((3R)oxolan-3-yl)amino]purin-9-yl}(3S,2R,4R,5R)-3,4-dihydroxyoxolan-2-yl)methoxy]-N-[(1R,2R)-2-(phenylmethoxy)cyclopentyl]carboxamide], the GTPγS is reported as 30%. Regarding `O[C@@H]1[C@H](O)[C@@H](COC(=S)N[C@@H]2CCC[C@H]2O)O[C@H]1n1cnc2c(N[C@@H]3CCOC3)ncnc21` [Compound 63 of Example 2, 2-{6-[((3R)oxolan-3-yl)amino]purin-9-yl}(4S,2R,3R,5R)-5-({[((1R,2R)-2-hydroxycyclopentyl)amino]thioxomethoxy}methyl)oxolane-3,4-diol], the GTPγS was 100%. Still for that read-out and setting: the value for `CN(C)C(=S)OC[C@H]1O[C@@H](n2cnc3c(N[C@@H]4CCOC4)ncnc32)[C@H](O)[C@@H]1O` [Compound 53 of Example 2, 2-{6-[((3R)oxolan-3-yl)amino]purin-9-yl}(4S,2R,3R,5R)-5-{[(dimethylamino)thioxomethoxy]methyl}oxolane-3,4-diol] was 85%; that for `CNC(=S)NC[C@H]1O[C@@H](n2cnc3c(N[C@@H]4CCOC4)ncnc32)[C@H](O)[C@@H]1O` [Compound 77 of Example 2, 2-{6-[((3R)oxolan-3-yl)amino]purin-9-yl}(4S,2R,3R,5R)-5-({[(methylamino)thioxomethyl]amino}methyl)oxolane-3,4-diol] was 101%. As to `O=C(NC1CC1c1ccccc1)OC[C@H]1O[C@@H](n2cnc3c(N[C@@H]4CCOC4)ncnc32)[C@H](O)[C@@H]1O` (stereo partly drawn) [Compound 40 of Example 2], the GTPγS was −6%. For `COC(=O)C1CCCC1NC(=O)OC[C@H]1O[C@@H](n2cnc3c(N[C@@H]4CCOC4)ncnc32)[C@H](O)[C@@H]1O` (stereo partly drawn) [Compound 34 of Example 2], the GTPγS worked out at 17%.

The experiment is the same for the next values; noted with them: Table 3, compounds of Example 4; normalized to the full agonist CPA.
`O[C@@H]1[C@H](O)[C@@H](CSc2ccc(C(F)(F)F)cc2)O[C@H]1n1cnc2c(N[C@@H]3CCOC3)ncnc21` [Compound 16 of Example 4, 2-{6-[((3R)oxolan-3-yl)amino]purin-9-yl}(4S,5S,2R,3R)-5-[(4-(trifluoromethyl)phenylthio)methyl]oxolane-3,4-diol]: the GTPγS was 31%.
